# Tested on: COV434 cells
# Test: NAD Cell Assays (NAD cycling method)
# Type: cell-based
# Details: COV434 cells treated at 200 uM for 4 hr; NAD normalized to protein; salt compared mole per mole with its parent counterpart
# Method: NAD levels were assayed based on the NAD cycling method of Zhu and Rand, PLoS One (2012), herein incorporated by reference. COV434 cells were maintained in 6 well plates and treated with the indicated compounds at a concentration of 200 uM for 4 hr. Media was removed, plates were washed in cold PBS and cells were scraped down in NAD extraction buffer containing 10 mM nicotinamide, 50 mM Tris HCl, 0.1% Triton X-100. Cells were homogenized by sonication for 5 seconds, and samples were centrifuged at 7,000 g for 5 min at 4 degrees. Aliquots were taken for later protein assay, and samples were then passed through 10 kDa amicon filters at 14,000 g, 30 min at 4 degrees to remove proteins from the sample. Each sample was measured in technical triplicate, with 25 μL sample added to 100 μL ADH cycling mix (0.2 mg/ml alcohol dehydrogenase enzyme, 2% ethanol, 100 mM Tris pH 8.5). Samples were allowed to cycle for 10 min at room temperature, followed by 50 μL addition of an MTT/PMS solution (0.1 mM phenazine methosulfate, 0.8 mM 3-(4,5-Dimethylthiazol-2-yl)-2,5-diphenyltetrazolium bromide), 100 mM Tris-HCl pH 8.5). Plates were then incubated for 15 min and absorbance was measured at 570 nm. NAD concentrations were extrapolated from a standard curve, and normalized to protein concentrations determined by BCA protein assay.
# The fold increase is obtained through a direct comparison on a mole per mole between the compared salt and its parent counterpart.
row,Structure (SMILES),Fold Increase of NAD Adjusted by Molecular Weight
1,"O=C([O-])c1ccc[n+]([C@@H]2O[C@H](COP(=O)(O)O)[C@@H](O)[C@H]2O)c1 [I-002, (R)-3-Carboxy-2-hydroxy-N,N,N-trimethylpropan-1-aminium 1-((2R,3R,4S,5R)-5-(((hydrogenphosphonato)oxy)methyl)-3,4-dihydroxytetrahydrofuran-2-yl)pyridin-1-ium-3-carboxylate]",1.47
2,"O=C([O-])c1ccc[n+]([C@@H]2O[C@H](COP(=O)(O)O)[C@@H](O)[C@H]2O)c1 [I-003, 1-Carboxy-N,N,N-trimethylmethanaminium 1-((2R,3R,4S,5R)-5-(((hydrogenphosphonato)oxy)methyl)-3,4-dihydroxytetrahydrofuran-2-yl)pyridin-1-ium-3-carboxylate]",1.51
3,"NC(=O)c1ccc[n+]([C@@H]2O[C@H](COP(=O)([O-])O)[C@@H](O)[C@H]2O)c1 [I-005, 1-Carboxy-N,N,N-trimethylmethanaminium ((2R,3S,4R,5R)-5-(3-carbamoylpyridin-1-ium-1-yl)-3,4-dihydroxytetrahydrofuran-2-yl)methyl phosphate]",1.35
4,"O=C([O-])c1ccc[n+]([C@@H]2O[C@H](COP(=O)(O)O)[C@@H](O)[C@H]2O)c1 [I-006, (R)-3-Carboxy-2-hydroxy-N,N,N-trimethylpropan-1-aminium 1-((2R,3R,4S,5R)-3,4-dihydroxy-5-((phosphonatooxy)methyl)tetrahydrofuran-2-yl)pyridin-1-ium-3-carboxylate]",1.64
5,"O=C([O-])c1ccc[n+]([C@@H]2O[C@H](COP(=O)(O)O)[C@@H](O)[C@H]2O)c1 [I-007, 1-Carboxy-N,N,N-trimethylmethanaminium 1-((2R,3R,4S,5R)-3,4-dihydroxy-5-((phosphonatooxy)methyl)tetrahydrofuran-2-yl)pyridin-1-ium-3-carboxylate]",1.92
